# Experimental data from patent US11945822B2, “Pyrazolo-triazine and/or pyrazolo-pxrimidine derivatives as selective inhibitor of cyclin dependent kinase” (QURIENT CO., LTD., priority 2018, dated 2024).
# Target: T1, CDK5/p25 (Homo sapiens, UniProt Q00535)
# T1 construct: purchased Invitrogen PR8543B
# Assay: Enzymatic assay for CDK5 (FRET based LANCE Ultra kinase assay)
# Format: biochemical
# Details: read-out: CDK5 enzymatic activity (IC50 range)
# Procedure, shortened: (§1)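 LANCE Ultra TR-FRET: ULight-MBP peptide (68 nM) with ATP at Km, […], 60 min at 23° C. EDTA plus Eu-anti-phospho-MBP added, another 60 min, then 665/615 nm emission read. Compounds tested as 8-dose 4-fold DMSO dilutions.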
# T1 sequence (Q00535 whole entry): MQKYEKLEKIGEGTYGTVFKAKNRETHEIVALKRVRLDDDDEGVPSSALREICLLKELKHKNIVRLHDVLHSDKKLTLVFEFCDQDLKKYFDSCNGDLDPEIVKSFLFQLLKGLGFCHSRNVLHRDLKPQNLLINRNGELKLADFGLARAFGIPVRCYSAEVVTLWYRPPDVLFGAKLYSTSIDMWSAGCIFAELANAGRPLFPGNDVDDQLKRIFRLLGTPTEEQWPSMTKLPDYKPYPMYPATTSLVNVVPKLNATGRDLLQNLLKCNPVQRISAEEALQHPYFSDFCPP
# T1 sequence (Q15078 99-307 partner limits assumed): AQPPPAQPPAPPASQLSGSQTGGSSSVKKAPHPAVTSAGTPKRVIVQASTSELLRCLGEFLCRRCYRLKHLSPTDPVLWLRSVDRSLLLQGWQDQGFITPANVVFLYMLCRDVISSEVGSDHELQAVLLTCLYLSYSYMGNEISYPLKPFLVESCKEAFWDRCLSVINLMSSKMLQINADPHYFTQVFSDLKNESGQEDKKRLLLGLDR
row,IC50 [µM],SMILES
1,> 1,CC(C)c1cnn2c(NCc3ccccc3-c3cc4ccccc4[nH]3)nc(N3CCCC(N)C3)nc12 (racemic) [Compound 125]
2,0.1 to 1,CC(C)c1cnn2c(NCc3ccccc3NC(=O)c3cccc(NC(=O)CCCN(C)C)c3)nc(N3CCC(N)CC3)nc12 [Compound 89]
3,0.1 to 1,CCC(O)c1cnn2c(NCc3ccccc3-n3cccn3)nc(N3CCC(N)CC3)nc12 (racemic) [Compound 52]
4,< 0.1,CC(C)c1cnn2c(NCc3cccc(-n4cccn4)c3)nc(N3CCC(N)CC3)nc12 [Compound 47]

# Test system: MOLT-4
# Assay: Cellular MOLT-4 viability assay (CellTiter-Glo, 72 hours)
# Format: cell-based
# Details: Homo sapiens, MOLT4 viability assay
# Protocol: (§2) All cell lines were routinely tested for mycoplasma.
# (§3) The effect of the CDK7 inhibitor to inhibit the growth of target cancer cells was evaluated through the 72 hours time period of viability assay. Briefly, the candidate cell line ware plated in 96 well plate at the following density of cells respectively. […] DMSO solvent without compound served as a control and final DMSO concentration less than 0.1%. After 72 hours of incubation at 37° C., 5% CO2 incubator, cells were analyzed for the viability using the CellTiter-Glo Luminescent Cell Viability Assay (Promega, Cat #G7570). All viability assays were performed in duplicate and Luminescence was read using an Envision (Perkin Elmer, USA). Data was analyzed using XLfit software.
row,IC50 [µM],SMILES
1,1 to 10,CC(C)c1cnn2c(NCc3ccccc3NC(=O)c3cccc(NC(=O)CCCN(C)C)c3)nc(N3CCC(N)CC3)nc12 [Compound 89]
2,1 to 10,CCC(O)c1cnn2c(NCc3ccccc3-n3cccn3)nc(N3CCC(N)CC3)nc12 (racemic) [Compound 52]
3,1 to 10,CC(C)c1cnn2c(NCc3cccc(-n4cccn4)c3)nc(N3CCC(N)CC3)nc12 [Compound 47]

# Test system: H460
# Assay: Cellular H460 viability assay (CellTiter-Glo, 72 hours)
# Format: cell-based
# Details: Homo sapiens, NCI-H460
# Procedure, shortened: (§4)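 Luminescent ATP read-out (CellTiter-Glo) after 72 h compound exposure at 37 °C/5% CO2; duplicate wells; vehicle control DMSO <0.1% final; seeding density set per cell line.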
row,IC50 [µM],SMILES
1,1 to 10,CCC(O)c1cnn2c(NCc3ccccc3-n3cccn3)nc(N3CCC(N)CC3)nc12 (racemic) [Compound 52]
2,< 1,CC(C)c1cnn2c(NCc3cccc(-n4cccn4)c3)nc(N3CCC(N)CC3)nc12 [Compound 47]

# Test system: MV4-11
# Assay: Cellular MV4-11 viability assay (CellTiter-Glo, 72 hours)
# Format: cell-based
# Details: Homo sapiens
# Procedure, shortened: as §4
row,IC50 [µM],SMILES
1,< 1,CC(C)c1cnn2c(NCc3ccccc3NC(=O)c3cccc(NC(=O)CCCN(C)C)c3)nc(N3CCC(N)CC3)nc12 [Compound 89]

# Target: T2, CDK1/Cyclin B (Homo sapiens, UniProt P06493)
# T2 construct: purchased Invitrogen PR4768C
# T2 sequence (P06493 whole entry): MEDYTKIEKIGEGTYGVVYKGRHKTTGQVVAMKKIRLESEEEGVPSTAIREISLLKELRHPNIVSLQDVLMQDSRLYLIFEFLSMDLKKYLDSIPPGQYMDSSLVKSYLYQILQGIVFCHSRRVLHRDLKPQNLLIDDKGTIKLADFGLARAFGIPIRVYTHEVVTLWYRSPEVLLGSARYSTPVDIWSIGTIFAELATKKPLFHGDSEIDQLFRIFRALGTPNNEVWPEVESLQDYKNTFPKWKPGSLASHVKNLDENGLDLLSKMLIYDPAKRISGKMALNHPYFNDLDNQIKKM
# T2 sequence (P14635 whole entry partner): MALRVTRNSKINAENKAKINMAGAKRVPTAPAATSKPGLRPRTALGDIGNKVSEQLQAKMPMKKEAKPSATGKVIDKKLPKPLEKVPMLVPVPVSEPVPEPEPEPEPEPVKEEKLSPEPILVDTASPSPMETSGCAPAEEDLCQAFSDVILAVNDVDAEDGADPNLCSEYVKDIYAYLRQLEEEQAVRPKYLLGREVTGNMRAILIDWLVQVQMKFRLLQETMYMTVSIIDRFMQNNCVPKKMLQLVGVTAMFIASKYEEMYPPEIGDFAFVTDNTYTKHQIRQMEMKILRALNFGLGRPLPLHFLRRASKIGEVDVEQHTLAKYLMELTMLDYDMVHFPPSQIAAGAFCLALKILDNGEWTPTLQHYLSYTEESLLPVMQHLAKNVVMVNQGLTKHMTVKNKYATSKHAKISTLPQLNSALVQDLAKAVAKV
# Assay: Enzymatic assay for CDK1 (FRET based LANCE Ultra kinase assay)
# Format: biochemical
# Details: read-out: CDK1 enzymatic activity (IC50 range)
# Procedure, shortened: as §1
row,IC50 [µM],SMILES
1,> 1,CC(C)c1cnn2c(NCc3ccccc3-c3cc4ccccc4[nH]3)nc(N3CCCC(N)C3)nc12 (racemic) [Compound 125]
2,> 1,CC(C)c1cnn2c(NCc3ccccc3NC(=O)c3cccc(NC(=O)CCCN(C)C)c3)nc(N3CCC(N)CC3)nc12 [Compound 89]
3,> 1,CCC(O)c1cnn2c(NCc3ccccc3-n3cccn3)nc(N3CCC(N)CC3)nc12 (racemic) [Compound 52]
4,0.1 to 1,CC(C)c1cnn2c(NCc3cccc(-n4cccn4)c3)nc(N3CCC(N)CC3)nc12 [Compound 47]

# Target: T3, CDK7/Cyclin H/MNAT1 (Homo sapiens, UniProt P50613)
# T3 construct: purchased Invitrogen PR6749B
# T3 sequence (P50613 whole entry): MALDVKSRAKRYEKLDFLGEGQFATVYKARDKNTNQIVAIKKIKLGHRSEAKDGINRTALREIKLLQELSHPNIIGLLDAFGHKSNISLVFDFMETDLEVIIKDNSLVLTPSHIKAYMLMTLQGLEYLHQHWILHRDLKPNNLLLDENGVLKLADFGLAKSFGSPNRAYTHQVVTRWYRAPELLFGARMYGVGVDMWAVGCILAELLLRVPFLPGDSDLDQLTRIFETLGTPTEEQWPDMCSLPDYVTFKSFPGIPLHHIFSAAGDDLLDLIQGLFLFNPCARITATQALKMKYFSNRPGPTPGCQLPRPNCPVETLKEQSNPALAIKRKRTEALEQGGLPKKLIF
# T3 sequence (P51946 whole entry partner): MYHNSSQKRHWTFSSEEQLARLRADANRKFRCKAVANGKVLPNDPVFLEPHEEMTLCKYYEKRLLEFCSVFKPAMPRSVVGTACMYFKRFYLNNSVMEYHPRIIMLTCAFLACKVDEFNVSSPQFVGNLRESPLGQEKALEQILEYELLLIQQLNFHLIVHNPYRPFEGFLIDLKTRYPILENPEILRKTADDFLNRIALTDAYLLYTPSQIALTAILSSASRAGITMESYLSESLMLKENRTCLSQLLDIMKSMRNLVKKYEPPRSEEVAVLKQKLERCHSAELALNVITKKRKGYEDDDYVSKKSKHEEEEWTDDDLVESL
# T3 sequence (P51948 whole entry partner): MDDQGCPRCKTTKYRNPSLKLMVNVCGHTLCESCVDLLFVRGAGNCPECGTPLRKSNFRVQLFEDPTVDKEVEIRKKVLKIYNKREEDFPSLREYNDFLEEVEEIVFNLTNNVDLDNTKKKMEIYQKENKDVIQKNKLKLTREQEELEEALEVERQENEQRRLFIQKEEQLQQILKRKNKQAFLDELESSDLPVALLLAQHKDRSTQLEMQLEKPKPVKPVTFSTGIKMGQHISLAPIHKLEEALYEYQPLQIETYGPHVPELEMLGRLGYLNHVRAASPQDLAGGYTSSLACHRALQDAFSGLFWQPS
# Assay: Enzymatic assay for CDK7 (FRET based LANCE Ultra kinase assay)
# Format: biochemical
# Details: CDK7 over CDK1
# Procedure, shortened: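 Inhibition was measured at Km ATP by time-resolved FRET between a Eu anti-phospho antibody and a phosphorylated ULight peptide. The enzyme was the purified CDK7/cyclin complex, and data were curve-fitted.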
row,CDK1/CDK7: Selectivity of CDK7 inhibition over CDK1 inhibition,SMILES
1,A (A=greater than 200 fold),CC(C)c1cnn2c(NCc3ccccc3-c3cc4ccccc4[nH]3)nc(N3CCCC(N)C3)nc12 (racemic) [Compound 125]
2,A (A=greater than 200 fold),CC(C)c1cnn2c(NCc3ccccc3NC(=O)c3cccc(NC(=O)CCCN(C)C)c3)nc(N3CCC(N)CC3)nc12 [Compound 89]
3,C (C=less than 20 fold),CCC(O)c1cnn2c(NCc3ccccc3-n3cccn3)nc(N3CCC(N)CC3)nc12 (racemic) [Compound 52]

row,SMILES,CDK1/CDK7: Selectivity of CDK7 inhibition over CDK1 inhibition
1,CC(C)c1cnn2c(NCc3cccc(-n4cccn4)c3)nc(N3CCC(N)CC3)nc12 [Compound 47],"B (B=less than 200 fold, but greater than 20 fold)"

# Same assay, conditions: CDK7 over CDK2
row,SMILES,CDK2/CDK7: Selectivity of CDK7 inhibition over CDK2 inhibition
1,CC(C)c1cnn2c(NCc3ccccc3-c3cc4ccccc4[nH]3)nc(N3CCCC(N)C3)nc12 (racemic) [Compound 125],"B (B=less than 200 fold, but greater than 20 fold)"
2,CC(C)c1cnn2c(NCc3ccccc3NC(=O)c3cccc(NC(=O)CCCN(C)C)c3)nc(N3CCC(N)CC3)nc12 [Compound 89],A (A=greater than 200 fold)
3,CCC(O)c1cnn2c(NCc3ccccc3-n3cccn3)nc(N3CCC(N)CC3)nc12 (racemic) [Compound 52],C (C=less than 20 fold)
4,CC(C)c1cnn2c(NCc3cccc(-n4cccn4)c3)nc(N3CCC(N)CC3)nc12 [Compound 47],"B (B=less than 200 fold, but greater than 20 fold)"

# Same assay, conditions: CDK7 over CDK5
row,SMILES,CDK5/CDK7: Selectivity of CDK7 inhibition over CDK5 inhibition
1,CC(C)c1cnn2c(NCc3ccccc3-c3cc4ccccc4[nH]3)nc(N3CCCC(N)C3)nc12 (racemic) [Compound 125],"B (B=less than 200 fold, but greater than 20 fold)"
2,CC(C)c1cnn2c(NCc3ccccc3NC(=O)c3cccc(NC(=O)CCCN(C)C)c3)nc(N3CCC(N)CC3)nc12 [Compound 89],"B (B=less than 200 fold, but greater than 20 fold)"
3,CCC(O)c1cnn2c(NCc3ccccc3-n3cccn3)nc(N3CCC(N)CC3)nc12 (racemic) [Compound 52],C (C=less than 20 fold)
4,CC(C)c1cnn2c(NCc3cccc(-n4cccn4)c3)nc(N3CCC(N)CC3)nc12 [Compound 47],C (C=less than 20 fold)

# Same assay, conditions: read-out: CDK7 enzymatic activity (IC50 range)
row,IC50 [µM],SMILES
1,< 0.1,CC(C)c1cnn2c(NCc3ccccc3-c3cc4ccccc4[nH]3)nc(N3CCCC(N)C3)nc12 (racemic) [Compound 125]
2,< 0.1,CC(C)c1cnn2c(NCc3ccccc3NC(=O)c3cccc(NC(=O)CCCN(C)C)c3)nc(N3CCC(N)CC3)nc12 [Compound 89]
3,< 0.1,CCC(O)c1cnn2c(NCc3ccccc3-n3cccn3)nc(N3CCC(N)CC3)nc12 (racemic) [Compound 52]
4,< 0.1,CC(C)c1cnn2c(NCc3cccc(-n4cccn4)c3)nc(N3CCC(N)CC3)nc12 [Compound 47]

# Test system: RPMI-8226
# Assay: Cellular RPMI-8226 viability assay (CellTiter-Glo, 72 hours)
# Format: cell-based
# Details: Homo sapiens
# Protocol: as §2, §3
row,IC50 [µM],SMILES
1,1 to 10,CC(C)c1cnn2c(NCc3ccccc3-c3cc4ccccc4[nH]3)nc(N3CCCC(N)C3)nc12 (racemic) [Compound 125]

# Test system: HCT116
# Assay: Cellular HCT116 viability assay (CellTiter-Glo, 72 hours)
# Format: cell-based
# Details: Homo sapiens, HCT-116
# Procedure, shortened: as §4
row,IC50 [µM],SMILES
1,1 to 10,CC(C)c1cnn2c(NCc3ccccc3NC(=O)c3cccc(NC(=O)CCCN(C)C)c3)nc(N3CCC(N)CC3)nc12 [Compound 89]
2,> 10,CCC(O)c1cnn2c(NCc3ccccc3-n3cccn3)nc(N3CCC(N)CC3)nc12 (racemic) [Compound 52]
3,< 1,CC(C)c1cnn2c(NCc3cccc(-n4cccn4)c3)nc(N3CCC(N)CC3)nc12 [Compound 47]

# Target: T4, CDK2/Cyclin A (Homo sapiens, UniProt P24941)
# T4 construct: purchased Invitrogen PV6290
# Assay: Enzymatic assay for CDK2 (FRET based LANCE Ultra kinase assay)
# Format: biochemical
# Details: read-out: CDK2 enzymatic activity (IC50 range)
# Procedure, shortened: as §1
row,IC50 [µM],SMILES
1,> 1,CC(C)c1cnn2c(NCc3ccccc3-c3cc4ccccc4[nH]3)nc(N3CCCC(N)C3)nc12 (racemic) [Compound 125]
2,> 1,CC(C)c1cnn2c(NCc3ccccc3NC(=O)c3cccc(NC(=O)CCCN(C)C)c3)nc(N3CCC(N)CC3)nc12 [Compound 89]
3,0.1 to 1,CCC(O)c1cnn2c(NCc3ccccc3-n3cccn3)nc(N3CCC(N)CC3)nc12 (racemic) [Compound 52]
4,0.1 to 1,CC(C)c1cnn2c(NCc3cccc(-n4cccn4)c3)nc(N3CCC(N)CC3)nc12 [Compound 47]
